From US11897917B2, “Bioconjugation of polypeptides” (The University of York, priority 2017, dated 2024)
Like-named read-outs stand apart in the source and are kept apart here.

Legend:
GFP(Y39ThzK) 2B = GFP(Y39ThzK) 2B (Aequorea victoria, UniProt P42212, F64L/H231L/S65T/V163A/Y39K); conditions: for effect on GFP (denaturation / unfolding): initial screen, 100 equivalents
Experimental: Palladium reagent 9 to 12 (stock 550 mM in DMSO, final concentration 33 mM) was added to 2b (stock 330 μM in buffer D1, final concentration 300 μM) in a 0.5 mL Eppendorf tube. The reaction mixture was vortex mixed for 1 s and incubated in a water bath at 37° C. The reaction was quenched by the addition of DTT (ca. 5 mg) and centrifuged (5000×g, 2 min). The supernatant was decanted and desalted using a PD SpinTrap G25 column (GE Healthcare Life Sciences) into H2O for mass spectrometry analysis or further manipulation.
Initially a reaction was set up using 25 μM of 2B (final concentration), 100 μM palladium catalyst (final concentration) in PBS pH 7.4. The reaction mix was then incubated at 37° C. for 1 hour before addition of 1 μl of 1% 3-mercaptopropanoic acid solution for every 10 μl of reaction solution in order to quench excess catalyst. Quenched solution was then incubated at room temperature for 15 minutes and then desalted using a PD SpinTrap G25 column (GE Healthcare Life Sciences) into H2O for mass spectrometry analysis or further manipulation. Efficiency of decaging was determined by ESI-MS.
This reaction process was repeated using protein concentrations of 2B up to 300 μM and catalyst concentrations.
9-12 were trialled at 37° C. at pH 7.4 in order to maintain biocompatibility over a range of concentrations and time intervals (Table 1).

glyoxyl-LYRAG 16A = experiment: screening of organocatalysts and aldehyde donors for OPAL reaction
Experimental: Initially a panel of secondary amines was screened to investigate their ability to catalyse the ligation using a model peptide substrate, glyoxyl-LYRAG 16A and acetaldehyde as an aldehyde donor 32. Second order rate constants for each catalyst (33-38) at 1, 10, and 25 mM loadings were obtained. Next the nature of the α-carbon substituent of the aldehyde donor was investigated by performing reactions using aldehyde donors bearing an aryl substituent (e.g. phenyl acetylaldehyde). Reactions were as shown in Scheme 7 below.
Encouraged by the biological compatibility and site selectivity in these preliminary ligations, attention next turned to optimizing the OPAL by focusing on the choice of organocatalyst and aldehyde donor species. Initially a panel of secondary amines (33-38) were screened to investigate their ability to catalyse the ligation using a model peptide substrate α-oxo-aldehyde-LYRAG 16A and acetaldehyde 32, and second order rate constants were obtained for each catalyst at 1, 10, and 25 mM loadings (Table 4).

[1] = tested on: α-phenyl-β-hydroxy aldehyde-LYRAG 50; experiment: screening of aniline catalysts for oxime ligation of aldol-LYRAG; conditions: 100 mM catalyst, 37° C., 18 hours
Experimental: […] The solution as then charged with an aniline catalyst 56-59 (1M, 50 μl, DMSO). The reaction was vortexed, and allowed to sit at 37° C. for 18 hours without further agitation. Conversion to the product 52 was confirmed by LC-MS analysis.

[2] = tested on: α-phenyl-β-hydroxy aldehyde-LYRAG 50; experiment: screening of aniline catalysts and buffer for retro-aldol decomposition of aldol-LYRAG
Experimental: The solution was then charged with an aniline catalyst (1M in 50 μl DMSO) selected from compounds 56, 57, 58 and 59 as shown in Scheme 10 below. The reaction was vortexed, and allowed to sit at 37° C. for 18 hours without further agitation. Conversion to the product 16A/16B was confirmed by LC-MS analysis.
[…] The solution was then charged with p-anisidine catalyst 57 (1M, 50 μl, DMSO). The reaction was vortexed, and allowed to sit at 37° C. for 18 hours without further agitation (Scheme 11). Conversion to the product 16A/16B was confirmed by LC-MS analysis.

[3] = 100 equiv. [Pd], 6 h, 37° C., pH 7.4
[4] = organocatalyst loading 1 mM, Donor R group = CH3
[5] = organocatalyst loading 1 mM, Donor R group = Phenyl-alanine
[6] = organocatalyst loading 10 mM, Donor R group = CH3
[7] = organocatalyst loading 10 mM, Donor R group = Phenyl-alanine
[8] = organocatalyst loading 25 mM, Donor R group = CH3
[9] = organocatalyst loading 25 mM, Donor R group = Phenyl-alanine
[10] = pH 7.5, 50 to 16A, PB 200 mM, 37° C., 18 hours

For `CC(=O)[O-].CC(=O)[O-].[Pd+2]` [compound 9, Palladium(II) acetate], the GFP fluorescence (GFP(Y39ThzK) 2B; 100 equiv. [Pd], 6 h) was “Yes”, the GFP fluorescence (GFP(Y39ThzK) 2B; 100 equiv. [Pd], 24 h) was “Yes” and the “effect on GFP (denaturation / unfolding)” value (GFP(Y39ThzK) 2B; 37° C., pH 7.4) was “immediate denaturation and eventual precipitation”.
For `CN(C)c1ccc(P(C(C)(C)C)C(C)(C)C)cc1.CN(C)c1ccc(P(C(C)(C)C)C(C)(C)C)cc1.[Cl-].[Cl-].[Pd+2]` [compound 10, dichlorobis[di-tert-butyl(4-dimethylaminophenyl)phosphine]palladium(II)], the GFP fluorescence (GFP(Y39ThzK) 2B; 100 equiv. [Pd], 6 h) was “No”, the “% conversion (decaging)” value (GFP(Y39ThzK) 2B; [3]) was 0% and the “% conversion (decaging)” value (GFP(Y39ThzK) 2B; 100 equiv. [Pd], 24 h) was 0%. The GFP fluorescence (GFP(Y39ThzK) 2B; 100 equiv. [Pd], 24 h) was “No”.
With `C=C[CH2-].C=C[CH2-].[Cl][Pd+].[Cl][Pd+]` [compound 11, Allylpalladium(II) chloride dimer] the “concentration at which reagent denatures GFP” value (GFP(Y39ThzK) 2B) was “greater than 0.5 mM”, the GFP fluorescence (GFP(Y39ThzK) 2B; 1 equiv. [Pd], 1 h) was “Yes” and the GFP fluorescence (GFP(Y39ThzK) 2B; 100 equiv. [Pd], 6 h) was “No”. The “% conversion (decaging)” value (GFP(Y39ThzK) 2B; [3]) was 30%, the GFP fluorescence (GFP(Y39ThzK) 2B; 100 equiv. [Pd], 24 h) was “No” and the “effect on GFP (denaturation / unfolding)” value (GFP(Y39ThzK) 2B; 37° C., pH 7.4) was “immediate denaturation and eventual precipitation”.
For `O=C(/C=C/c1ccccc1)/C=C/c1ccccc1.O=C(/C=C/c1ccccc1)/C=C/c1ccccc1.O=C(/C=C/c1ccccc1)/C=C/c1ccccc1.[Pd].[Pd]` [compound 12, Tris(dibenzylideneacetone)dipalladium(0)], the GFP fluorescence (GFP(Y39ThzK) 2B; 1 equiv. [Pd], 1 h) was “Yes”, the GFP fluorescence (GFP(Y39ThzK) 2B; 100 equiv. [Pd], 6 h) was “Yes” and the “% conversion (decaging)” value (GFP(Y39ThzK) 2B; 100 equiv. [Pd], 24 h) was 80%. For the same compound, the GFP fluorescence (GFP(Y39ThzK) 2B; 100 equiv. [Pd], 24 h) was “Yes”, the “% conversion (decaging)” value (GFP(Y39ThzK) 2B; 100 equiv. [Pd], 40 h) was 100% and the GFP fluorescence (GFP(Y39ThzK) 2B; 100 equiv. [Pd], 40 h) was “Yes”. For the same compound, the “% conversion (decaging)” value (GFP(Y39ThzK) 2B; 100 equiv. [Pd], 68 h) was 90%, the GFP fluorescence (GFP(Y39ThzK) 2B; 100 equiv. [Pd], 68 h) was “Yes” and the “% conversion (decaging)” value (GFP(Y39ThzK) 2B; 200 equiv. [Pd], 6 h) was 40%. The GFP fluorescence (GFP(Y39ThzK) 2B; 200 equiv. [Pd], 6 h) was “Yes”, the “Conversion of 2B to 13A/B” value (GFP(Y39ThzK) 2B; ESI-MS, after 24 h) was > 95% and the “time to completion of decaging” value (GFP(Y39ThzK) 2B; after condition optimisation) was ≤ 24 h. The “time to complete decaging” value (GFP(Y39ThzK) 2B; initial conditions) was 48 h and the “effect on GFP (denaturation / unfolding)” value (GFP(Y39ThzK) 2B; 37° C., pH 7.4) was “did not lead to GFP unfolding”.
With `O=C(O)[C@@H]1CCCN1` [compound 33, L-proline] the “Second Order Rate Constant” value (glyoxyl-LYRAG 16A; [4]) was 0.00009 M⁻¹ s⁻¹, the “Second Order Rate Constant” value (glyoxyl-LYRAG 16A; [5]) was 1.684 M⁻¹ s⁻¹ and the “Second Order Rate Constant” value (glyoxyl-LYRAG 16A; [6]) was 0.0033 M⁻¹ s⁻¹. For the same compound, the “Second Order Rate Constant” value (glyoxyl-LYRAG 16A; [7]) was 4.366 M⁻¹ s⁻¹, the “Second Order Rate Constant” value (glyoxyl-LYRAG 16A; [8]) was 0.0100 M⁻¹ s⁻¹ and the “Second Order Rate Constant” value (glyoxyl-LYRAG 16A; [9]) was 7.899 M⁻¹ s⁻¹.
In the case of `C1CCNCC1` [compound 35, Piperidine], the “Second Order Rate Constant” value (glyoxyl-LYRAG 16A; [4]) is reported as >0.0001 M⁻¹ s⁻¹, the “Second Order Rate Constant” value (glyoxyl-LYRAG 16A; [6]) is reported as 0.0009 M⁻¹ s⁻¹ and the “Second Order Rate Constant” value (glyoxyl-LYRAG 16A; [8]) is reported as 0.0016 M⁻¹ s⁻¹.
For `O=C(O)[C@@H]1CCN1` [compound 36, L-Azetidine 2 carboxylic acid], the “Second Order Rate Constant” value (glyoxyl-LYRAG 16A; [4]) was 0.0004 M⁻¹ s⁻¹, the “Second Order Rate Constant” value (glyoxyl-LYRAG 16A; [6]) was 0.0024 M⁻¹ s⁻¹ and the “Second Order Rate Constant” value (glyoxyl-LYRAG 16A; [8]) was 0.0052 M⁻¹ s⁻¹.
For `C1CNCCOC1` [compound 37, Homomorpholine], the “Second Order Rate Constant” value (glyoxyl-LYRAG 16A; [4]) was 0.0022 M⁻¹ s⁻¹, the “Second Order Rate Constant” value (glyoxyl-LYRAG 16A; [6]) was 0.0166 M⁻¹ s⁻¹ and the “Second Order Rate Constant” value (glyoxyl-LYRAG 16A; [8]) was 0.0252 M⁻¹ s⁻¹.
In the case of `C1CN[C@H](c2nnn[nH]2)C1` [compound 38, (S)-(−)-5-(2-Pyrrolidinyl)-1H-tetrazole], the “Second Order Rate Constant” value (glyoxyl-LYRAG 16A; [4]) is reported as 0.0092 M⁻¹ s⁻¹, the “Second Order Rate Constant” value (glyoxyl-LYRAG 16A; [5]) is reported as 3.792 M⁻¹ s⁻¹ and the “Second Order Rate Constant” value (glyoxyl-LYRAG 16A; [6]) is reported as 0.0551 M⁻¹ s⁻¹. For the same compound, the “Second Order Rate Constant” value (glyoxyl-LYRAG 16A; [7]) was 11.820 M⁻¹ s⁻¹, the “Second Order Rate Constant” value (glyoxyl-LYRAG 16A; [8]) was 0.0997 M⁻¹ s⁻¹ and the “Second Order Rate Constant” value (glyoxyl-LYRAG 16A; [9]) was 23.947 M⁻¹ s⁻¹.
For `Nc1ccccc1` [compound 56, aniline], the “Conjugation Yield (oxime)” value ([1]; pH 4.5) was 61%, the “Conjugation Yield (oxime)” value ([1]; pH 7.5) was 95% and the Retro-aldol conversion [2, 10] was 25%.
For `COc1ccc(N)cc1` [compound 57, p-anisidine], the “Conjugation Yield (oxime)” value ([1]; pH 4.5) was 81%, the “Conjugation Yield (oxime)” value ([1]; pH 7.5) was 92% and the Retro-aldol conversion ([2]; PB, pH 7.5, conc. 10 (Mm)) was 0%. It also gave a Retro-aldol conversion ([2]; PB, pH 7.5, conc. 50 (Mm)) of 13%, a Retro-aldol conversion ([2]; PB, pH 7.5, conc. 100 (Mm)) of 50% and a Retro-aldol conversion [2, 10] of 52%.
With `COc1ccc(N)c(C(=O)O)c1` [compound 58, 5-methoxy anthranilic acid] the “Conjugation Yield (oxime)” value ([1]; pH 4.5) was 34%, the “Conjugation Yield (oxime)” value ([1]; pH 7.5) was 97% and the Retro-aldol conversion [2, 10] was 8%.
With `Nc1cc([N+](=O)[O-])ccc1O` [compound 59, 2-Amino-4-nitrophenol] the “Conjugation Yield (oxime)” value ([1]; pH 4.5) was “precipitates”, the “Conjugation Yield (oxime)” value ([1]; pH 7.5) was 97% and the Retro-aldol conversion [2, 10] was 0%.
For `O=CCc1ccccc1` [phenyl acetylaldehyde], the “increase in rate over aldehyde donors bearing alkyl substituents” value (glyoxyl-LYRAG 16A; with L-proline 33 and tetrazole 38) was ≥ 240 fold.
In the case of Pyrrolidine [compound 34], the “Second Order Rate Constant” value (glyoxyl-LYRAG 16A; [4]) is reported as 0.0005 M⁻¹ s⁻¹, the “Second Order Rate Constant” value (glyoxyl-LYRAG 16A; [6]) is reported as 0.0037 M⁻¹ s⁻¹ and the “Second Order Rate Constant” value (glyoxyl-LYRAG 16A; [8]) is reported as 0.0058 M⁻¹ s⁻¹.
